Experimental data taken from ChEMBL document CHEMBL1153489, “Benzothiophene inhibitors of MK2. Part 1: structure-activity relationships, assessments of selectivity and cellular potency” (Bioorg Med Chem Lett, 2009).
The source made the active and inactive calls. No cut-off for these calls is given here.

What was measured:
[1] = molecular target: T1, MAP kinase-activated protein kinase 2 (Homo sapiens, UniProt P49137); assay: Inhibition of MK2
[2] = molecular target: T1, MAP kinase-activated protein kinase 2; assay: Inhibition of MK2 in human U937 cells assessed as blockade of LPS-stimulated TNFalpha production; format: cell-based, U-937
[3] = molecular target: MAP kinase p38 (Homo sapiens) (UniProt O15264+Q15759+Q16539+P53778); assay: Inhibition of p38 phosphorylation in LPS-stimulated human U937 cells; format: cell-based; conditions: U-937
[4] = molecular target: Mitogen-activated protein kinase 9 (Homo sapiens) (UniProt P45984); assay: Inhibition of JNK2 phosphorylation in LPS-stimulated human U937 cells; format: cell-based; conditions: U-937
Mitogen-activated protein kinase 9 (Homo sapiens), sequence (P45984 whole entry, looked up): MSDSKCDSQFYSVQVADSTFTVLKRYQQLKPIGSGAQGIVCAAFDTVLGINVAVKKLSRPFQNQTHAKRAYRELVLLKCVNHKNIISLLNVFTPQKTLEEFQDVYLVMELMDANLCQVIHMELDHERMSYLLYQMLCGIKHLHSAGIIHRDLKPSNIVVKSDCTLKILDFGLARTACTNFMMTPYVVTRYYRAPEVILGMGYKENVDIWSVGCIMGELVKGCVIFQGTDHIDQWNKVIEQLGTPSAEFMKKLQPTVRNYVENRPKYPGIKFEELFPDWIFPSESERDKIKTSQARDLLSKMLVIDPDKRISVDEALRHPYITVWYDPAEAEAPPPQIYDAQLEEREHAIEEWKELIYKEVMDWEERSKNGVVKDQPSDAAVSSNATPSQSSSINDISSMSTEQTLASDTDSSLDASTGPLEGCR

T1 sequence (P49137 whole entry): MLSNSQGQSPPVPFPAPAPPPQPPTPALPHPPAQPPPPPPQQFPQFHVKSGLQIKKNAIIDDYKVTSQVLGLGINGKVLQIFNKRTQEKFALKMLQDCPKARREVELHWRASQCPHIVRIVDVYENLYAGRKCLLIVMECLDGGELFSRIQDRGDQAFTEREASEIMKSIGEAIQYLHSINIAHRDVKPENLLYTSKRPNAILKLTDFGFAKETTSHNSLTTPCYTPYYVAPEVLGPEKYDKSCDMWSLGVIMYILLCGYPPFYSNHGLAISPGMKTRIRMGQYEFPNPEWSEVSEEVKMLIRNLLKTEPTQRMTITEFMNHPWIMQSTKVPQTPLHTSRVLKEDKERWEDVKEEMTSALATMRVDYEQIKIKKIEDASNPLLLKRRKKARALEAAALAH

SMILES | IC50 [1] [nM] | IC50 [2] [nM] | Activity [3] | Activity [4]
COc1ccc2sc3c(c2c1)NC[C@@H](CN(C)Cc1ccccc1)NC3=O | 1910 | 24000 | – | –
COc1ccc2sc3c(c2c1)NC[C@@H](CN1CCCC1)NC3=O | > 20000 | – | – | –
COC(=O)COc1ccc2sc3c(c2c1)NC[C@@H](C)NC3=O | 3440 | 78000 | – | –
CCC[C@@H]1CNc2c(sc3ccc(OC)cc23)C(=O)N1 | 1520 | 5450 | – | –
C[C@@H]1CNc2c(sc3ccc(OCC4CC4)cc23)C(=O)N1 | 1320 | 27000 | – | –
COc1ccc2sc3c(c2c1)CCCNC3=O | 500 | 4700 | – | –
COc1ccc2sc3c(c2c1)NC[C@@H](CN)NC3=O | 5 | 2600 | – | –
COc1ccc2sc3c(c2c1)NC[C@@H](CO)NC3=O | 14 | 400 | inactive | inactive
COc1cccc(COc2ccc3sc4c(c3c2)NC[C@@H](C)NC4=O)c1 | 110 | 4600 | – | –
COc1ccc2sc3c(c2c1)NC[C@@H](CN1CCOCC1)NC3=O | > 20000 | – | – | –

More lines, main results first:

IC50 [1] [nM] | IC50 [2] [nM] | SMILES | Activity [3] | Activity [4]
180 | 1400 | COc1ccc2sc3c(c2c1)NCCNC3=O | – | –
190 | 3500 | C[C@@H]1CNc2c(sc3ccc(O)cc23)C(=O)N1 | – | –
1090 | 5500 | COc1ccc2sc3c(c2c1)SCCNC3=O | – | –
30 | 1800 | CC(C)COc1ccc2sc3c(c2c1)NC[C@@H](C)NC3=O | – | –
270 | 3100 | COCCOc1ccc2sc3c(c2c1)NC[C@@H](C)NC3=O | – | –
450 | 14900 | CCCNC[C@@H]1CNc2c(sc3ccc(OC)cc23)C(=O)N1 | – | –
570 | 21600 | CCNC[C@@H]1CNc2c(sc3ccc(OC)cc23)C(=O)N1 | – | –
570 | 21000 | COc1ccc2sc3c(c2c1)NC[C@@H](CNCc1ccccc1)NC3=O | – | –
